Test results reported in ChEMBL document CHEMBL1201862, “PubChem BioAssay data set” (2004).
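Results reflect a 48-hour exposure of cells in 96-well plates to compound at five concentrations. GI50 marks 50% less growth.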 Active and inactive are the calls of the source. Cut-off read from the data, not from the text of the source: active = GI50 up to about 1.1 µM and inactive = higher.

Columns and labels:
Experiment in all cases: NCI anticancer screen, dose series, 48 h
HT-29 = tested on: HT-29
OVCAR-4 = tested on: OVCAR-4
HCT-116 = tested on: HCT-116
UACC-62 = tested on: UACC-62
NCI-H226 = tested on: NCI-H226
SNB-75 = tested on: SNB-75
M14 = tested on: M14
SF-539 = tested on: SF-539
NCI-H522 = tested on: NCI-H522
TK-10 = tested on: TK-10
KM12 = tested on: KM12
SF-295 = tested on: SF-295
SF-268 = tested on: SF-268
SK-MEL-2 = tested on: SK-MEL-2
NCI-H460 = tested on: NCI-H460
COLO 205 = tested on: COLO 205
PC-3 = tested on: PC-3
NCI-H23 = tested on: NCI-H23
SN12C = tested on: SN12C
IGROV-1 = tested on: IGROV-1

Measured: GI50

O=C(N(C1=CCCC1)N(c1ccccc1)c1ccccc1)C(F)(F)F
inactive: HT-29 17.3 µM | OVCAR-4 25.4 µM | HCT-116 21.5 µM | UACC-62 25.8 µM | NCI-H226 19.7 µM | SNB-75 20 µM | M14 26.2 µM | SF-539 20.2 µM | NCI-H522 10.4 µM | TK-10 39.9 µM | KM12 18.1 µM | SF-295 22.6 µM | SF-268 16.7 µM | SK-MEL-2 17.1 µM | NCI-H460 17.5 µM | COLO 205 18.6 µM | PC-3 30.3 µM | NCI-H23 30.4 µM | SN12C 26.9 µM

CC1C2CC(CC23OCC(CCl)O3)C1(C)C (configuration not stated)
inactive: HT-29 > 100 µM | OVCAR-4 > 100 µM | HCT-116 > 100 µM | UACC-62 > 100 µM | NCI-H226 > 100 µM | SNB-75 > 100 µM | M14 > 100 µM | SF-539 > 100 µM | IGROV-1 > 100 µM | NCI-H522 > 100 µM | TK-10 > 100 µM | KM12 > 100 µM | SF-295 > 100 µM | SF-268 > 100 µM | NCI-H460 > 100 µM | COLO 205 > 100 µM | PC-3 > 100 µM | NCI-H23 > 100 µM | SN12C > 100 µM

Cc1cc2[nH]c3c(C#N)c(-c4ccccc4)c(CN4CCOCC4)c(=O)n3c2cc1C
inactive: OVCAR-4 > 100 µM | HCT-116 > 100 µM | NCI-H226 > 100 µM | SNB-75 40.7 µM | M14 > 100 µM | SF-539 > 100 µM | NCI-H522 > 100 µM | TK-10 > 100 µM | KM12 > 100 µM | SF-295 > 100 µM | SF-268 > 100 µM | SK-MEL-2 > 100 µM | NCI-H460 > 100 µM | COLO 205 > 100 µM | PC-3 > 100 µM | NCI-H23 > 100 µM | SN12C > 100 µM

Cc1cc(NS(=O)(=O)c2ccc(/N=N/c3c(O)c(C(=O)O)cc4ccccc34)cc2)nc(C)n1
inactive: HT-29 > 100 µM | OVCAR-4 > 100 µM | HCT-116 > 100 µM | UACC-62 > 100 µM | NCI-H226 > 100 µM | SNB-75 > 100 µM | M14 > 100 µM | SF-539 > 100 µM | IGROV-1 > 100 µM | NCI-H522 > 100 µM | TK-10 > 100 µM | KM12 > 100 µM | SF-295 > 100 µM | SF-268 > 100 µM | SK-MEL-2 > 100 µM | NCI-H460 > 100 µM | COLO 205 > 100 µM | PC-3 > 100 µM

CCN(CC)CCC(=O)OC1C(C)=CC(C)C(=O)CC(C(C)CC2CCC(O)C(OC)C2)OC(=O)C2CCCCN2C(=O)C(=O)[C@@]2(O)OC(CCC2C)CC(OC)\C(C)=C/C=C/C=C/C(C)CC(C)C(=O)C1OC (some centres not stated)
inactive: HT-29 1.91 µM | HCT-116 5.89 µM | NCI-H226 12.9 µM | M14 10.4 µM | NCI-H522 12.2 µM | TK-10 5.69 µM | KM12 7.98 µM | COLO 205 12.1 µM | NCI-H23 11.7 µM | SN12C 6.37 µM
active: OVCAR-4 < 0.01 µM | SNB-75 < 0.01 µM | SF-539 < 0.01 µM | IGROV-1 < 0.01 µM | SF-295 < 0.01 µM | SF-268 1.07 µM | PC-3 < 0.01 µM

C=C(Br)C(Cl)(CBr)CCC(Br)C(C)(C)Cl (configuration not stated)
inactive: HT-29 > 10 µM | OVCAR-4 > 10 µM | HCT-116 > 10 µM | UACC-62 > 10 µM | NCI-H226 > 10 µM | SNB-75 > 10 µM | M14 > 10 µM | SF-539 > 10 µM | IGROV-1 > 10 µM | NCI-H522 > 10 µM | TK-10 > 10 µM | KM12 > 10 µM | SF-295 > 10 µM | SF-268 > 10 µM | SK-MEL-2 > 10 µM | COLO 205 > 10 µM | PC-3 > 10 µM | NCI-H23 > 10 µM | SN12C > 10 µM

COC(=O)/C=C/[C@H]1[C@H](C)N1S(=O)(=O)c1ccc(C)cc1 (some centres not stated)
inactive: HT-29 > 100 µM | OVCAR-4 56.8 µM | HCT-116 41.8 µM | UACC-62 > 100 µM | NCI-H226 > 100 µM | M14 > 100 µM | SF-539 37 µM | IGROV-1 > 100 µM | NCI-H522 48.6 µM | TK-10 > 100 µM | KM12 > 100 µM | SF-295 > 100 µM | SF-268 > 100 µM | SK-MEL-2 68.7 µM | NCI-H460 > 100 µM | COLO 205 > 100 µM | PC-3 > 100 µM | NCI-H23 74.3 µM | SN12C > 100 µM

COc1ccc2c(c1)CC1=C(O2)c2ccc(OC)cc2OC1
inactive: HT-29 20.7 µM | OVCAR-4 22.5 µM | HCT-116 18.3 µM | UACC-62 17.7 µM | NCI-H226 18.5 µM | SNB-75 25 µM | M14 19.7 µM | SF-539 35.9 µM | IGROV-1 28.5 µM | NCI-H522 17 µM | TK-10 22.6 µM | KM12 31 µM | SF-295 52.2 µM | SF-268 24.4 µM | SK-MEL-2 31.3 µM | COLO 205 18.3 µM | PC-3 23.2 µM | NCI-H23 45.7 µM | SN12C 20.5 µM
